Reference: patent publication US20250171438A1 (Agios Pharmaceuticals, Inc., priority 2022, published 2025)

Biological target: T1, human PAH with the R408W mutation (Homo sapiens, UniProt P00439, R408W)
T1 construct: expressed in transfected cells
T1 sequence (P00439 1-452 R408W): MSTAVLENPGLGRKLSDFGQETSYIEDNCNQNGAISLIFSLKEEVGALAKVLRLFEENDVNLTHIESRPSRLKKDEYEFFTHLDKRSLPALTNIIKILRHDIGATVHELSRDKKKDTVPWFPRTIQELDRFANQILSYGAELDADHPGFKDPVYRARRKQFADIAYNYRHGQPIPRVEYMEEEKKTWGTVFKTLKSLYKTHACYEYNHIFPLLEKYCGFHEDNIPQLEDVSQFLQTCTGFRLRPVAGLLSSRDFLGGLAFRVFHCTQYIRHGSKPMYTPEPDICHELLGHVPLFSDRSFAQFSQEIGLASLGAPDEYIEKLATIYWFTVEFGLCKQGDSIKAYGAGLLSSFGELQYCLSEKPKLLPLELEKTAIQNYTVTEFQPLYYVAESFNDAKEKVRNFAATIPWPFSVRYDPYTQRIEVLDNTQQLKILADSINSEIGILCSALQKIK
Assay: Cell Based Phenylalanine Flux Assay
Conditions: A375 cells expressing human R408W PAH; 24 hrs compound incubation; 13C-Tyrosine by LC-MS; average where tested multiple times; read-out: AC50

Row | AC50 [nM] | Structure (SMILES)
1 | < 500 | O=C(c1oc(C2(O)CCC2)nc1C(F)(F)F)N1CCc2[nH]cnc2[C@@H]1c1nc2ccccc2s1 [Example 1566, (R)-(4-(benzo[d]thiazol-2-yl)-6,7-dihydro-1H-imidazo[4,5-c]pyridin-5(4H)-yl)(2-(1-hydroxycyclobutyl)-4-(trifluoromethyl)oxazol-5-yl)methanone]
2 | 500 to 1000 | O=C(c1oc(/C=C/C2CC2)nc1C(F)(F)F)N1CCc2[nH]cnc2[C@H]1c1nc2ccccc2s1 [Example 1567]
3 | 1000 to 5000 | O=C(c1oc(/C=C/C2CC2)nc1C(F)(F)F)N1CCc2[nH]cnc2[C@@H]1c1nc2ccccc2s1 [Example 1568, (R,E)-(4-(benzo[d]thiazol-2-yl)-6,7-dihydro-1H-imidazo[4,5-c]pyridin-5(4H)-yl)(2-(2-cyclopropylvinyl)-4-(trifluoromethyl)oxazol-5-yl)methanone]
4 | < 500 | CC(C)(O)/C=C/c1nc(C(F)(F)F)c(C(=O)N2CCc3[nH]cnc3[C@H]2c2nc3ccccc3s2)o1 [Example 1569]
5 | < 500 | CC(C)(O)/C=C/c1nc(C(F)(F)F)c(C(=O)N2CCc3[nH]cnc3[C@@H]2c2nc3ccccc3s2)o1 [Example 1570, (R,E)-(4-(benzo[d]thiazol-2-yl)-6,7-dihydro-1H-imidazo[4,5-c]pyridin-5(4H)-yl)(2-(3-hydroxy-3-methylbut-1-en-1-yl)-4-(trifluoromethyl)oxazol-5-yl)methanone]
6 | < 500 | CN1CCN(c2nc(C(F)(F)F)c(C(=O)N3CCc4[nH]cnc4[C@H]3c3nc4ccccc4s3)o2)CC1 [Example 1573]
7 | < 500 | CN1CCN(c2nc(C(F)(F)F)c(C(=O)N3CCc4[nH]cnc4[C@@H]3c3nc4ccccc4s3)o2)CC1 [Example 1574, (R)-(4-(benzo[d]thiazol-2-yl)-6,7-dihydro-1H-imidazo[4,5-c]pyridin-5(4H)-yl)(2-(4-methylpiperazin-1-yl)-4-(trifluoromethyl)oxazol-5-yl)methanone]
8 | < 500 | O=C(c1oc(CCN2CC(F)C2)nc1C(F)(F)F)N1CCc2[nH]cnc2[C@H]1c1nc2ccccc2s1 [Example 1575]
9 | < 500 | O=C(c1oc(CCN2CC(F)C2)nc1C(F)(F)F)N1CCc2[nH]cnc2[C@@H]1c1nc2ccccc2s1 [Example 1576, (R)-(4-(benzo[d]thiazol-2-yl)-6,7-dihydro-1H-imidazo[4,5-c]pyridin-5(4H)-yl)(2-(2-(3-fluoroazetidin-1-yl)ethyl)-4-(trifluoromethyl)oxazol-5-yl)methanone]
10 | < 500 | O=C(c1oc(CCC2CC2)nc1C(F)(F)F)N1CCc2[nH]cnc2[C@H]1c1nc2ccccc2s1 [Example 1579]
11 | < 500 | O=C(c1oc(CCC2CC2)nc1C(F)(F)F)N1CCc2[nH]cnc2[C@@H]1c1nc2ccccc2s1 [Example 1580, (R)-(4-(benzo[d]thiazol-2-yl)-6,7-dihydro-1H-imidazo[4,5-c]pyridin-5(4H)-yl)(2-(2-cyclopropylethyl)-4-(trifluoromethyl)oxazol-5-yl)methanone]
12 | < 500 | CN(C)CCc1nc(C(F)(F)F)c(C(=O)N2CCc3[nH]cnc3[C@H]2c2nc3ccccc3s2)o1 [Example 1581]
13 | < 500 | CN(C)CCc1nc(C(F)(F)F)c(C(=O)N2CCc3[nH]cnc3[C@@H]2c2nc3ccccc3s2)o1 [Example 1582, (R)-(4-(benzo[d]thiazol-2-yl)-6,7-dihydro-1H-imidazo[4,5-c]pyridin-5(4H)-yl)(2-(2-(dimethylamino)ethyl)-4-(trifluoromethyl)oxazol-5-yl)methanone]

The next lines start with the compound.

Row | Structure (SMILES) | AC50 [nM]
14 | O=C(c1oc(C2CC2)nc1C(F)F)N1CCc2[nH]cnc2[C@H]1c1nc2c(F)cccc2s1 [Example 1571, (S)-(2-cyclopropyl-4-(difluoromethyl)oxazol-5-yl)(4-(4-fluorobenzo[d]thiazol-2-yl)-6,7-dihydro-1H-imidazo[4,5-c]pyridin-5(4H)-yl)methanone] | < 500
15 | O=C(c1oc(C2CC2)nc1C(F)F)N1CCc2[nH]cnc2[C@@H]1c1nc2c(F)cccc2s1 [Example 1572, (R)-(2-cyclopropyl-4-(difluoromethyl)oxazol-5-yl)(4-(4-fluorobenzo[d]thiazol-2-yl)-6,7-dihydro-1H-imidazo[4,5-c]pyridin-5(4H)-yl)methanone] | 500 to 1000
16 | Cc1ncoc1C(=O)N1CC2(CC2)c2[nH]cnc2[C@@H]1c1nc2ccccc2s1 [Example 1578, (R)-(4′-(benzo[d]thiazol-2-yl)spiro[cyclopropane-1,7′-imidazo[4,5-c]pyridin]-5′(1′H,4′H,6′H)-yl)(4-methyloxazol-5-yl)methanone] | > 5000
17 | N#Cc1ncoc1C(=O)N1CCc2[nH]cnc2[C@H]1c1nc2ccccc2s1 [Example 1583, (S)-5-(4-(benzo[d]thiazol-2-yl)-4,5,6,7-tetrahydro-1H-imidazo[4,5-c]pyridine-5-carbonyl)oxazole-4-carbonitrile] | < 500
18 | N#Cc1ncoc1C(=O)N1CCc2[nH]cnc2[C@@H]1c1nc2ccccc2s1 [Example 1584, (R)-5-(4-(benzo[d]thiazol-2-yl)-4,5,6,7-tetrahydro-1H-imidazo[4,5-c]pyridine-5-carbonyl)oxazole-4-carbonitrile] | > 5000
19 | O=C(c1nnc(N2CCOCC2)o1)N1CCc2[nH]cnc2[C@H]1c1nc2ccccc2s1 [Example 1585] | 500 to 1000
20 | O=C(c1nnc(N2CCOCC2)o1)N1CCc2[nH]cnc2[C@@H]1c1nc2ccccc2s1 [Example 1586, (R)-(4-(benzo[d]thiazol-2-yl)-6,7-dihydro-1H-imidazo[4,5-c]pyridin-5(4H)-yl)(5-morpholino-1,3,4-oxadiazol-2-yl)methanone] | 1000 to 5000
21 | C[C@@H]1CN(C(=O)c2nnc(-c3ccccn3)o2)[C@H](c2nc3ccccc3s2)c2nc[nH]c21 [Example 1588, ((4S,7R)-4-(benzo[d]thiazol-2-yl)-7-methyl-6,7-dihydro-1H-imidazo[4,5-c]pyridin-5(4H)-yl)(5-(pyridin-2-yl)-1,3,4-oxadiazol-2-yl)methanone] | 500 to 1000
22 | C[C@H]1CN(C(=O)c2nnc(-c3ccccn3)o2)[C@H](c2nc3ccccc3s2)c2nc[nH]c21 [Example 1589, ((4S,7S)-4-(benzo[d]thiazol-2-yl)-7-methyl-6,7-dihydro-1H-imidazo[4,5-c]pyridin-5(4H)-yl)(5-(pyridin-2-yl)-1,3,4-oxadiazol-2-yl)methanone] | 500 to 1000
23 | C[C@H]1CN(C(=O)c2nnc(-c3ccccn3)o2)[C@@H](c2nc3ccccc3s2)c2nc[nH]c21 [Example 1590, ((4R,7S)-4-(benzo[d]thiazol-2-yl)-7-methyl-6,7-dihydro-1H-imidazo[4,5-c]pyridin-5(4H)-yl)(5-(pyridin-2-yl)-1,3,4-oxadiazol-2-yl)methanone] | 1000 to 5000
24 | O=C(c1nnc(N2CCC(F)CC2)o1)N1CCc2[nH]cnc2[C@H]1c1nc2ccccc2s1 [Example 1591] | < 500
25 | O=C(c1nnc(N2CCC(F)CC2)o1)N1CCc2[nH]cnc2[C@@H]1c1nc2ccccc2s1 [Example 1592, (R)-(4-(benzo[d]thiazol-2-yl)-6,7-dihydro-1H-imidazo[4,5-c]pyridin-5(4H)-yl)(5-(4-fluoropiperidin-1-yl)-1,3,4-oxadiazol-2-yl)methanone] | 1000 to 5000
26 | O=C(c1nnc(NC2CC2)o1)N1CCc2[nH]cnc2[C@H]1c1nc2ccccc2s1 [Example 1593] | 500 to 1000
27 | O=C(c1nnc(NC2CC2)o1)N1CCc2[nH]cnc2[C@@H]1c1nc2ccccc2s1 [Example 1594, (R)-(4-(benzo[d]thiazol-2-yl)-6,7-dihydro-1H-imidazo[4,5-c]pyridin-5(4H)-yl)(5-(cyclopropylamino)-1,3,4-oxadiazol-2-yl)methanone] | 1000 to 5000
28 | O=C(c1oc(NC2CC2)nc1C(F)(F)F)N1CCc2[nH]cnc2[C@H]1c1nc2c(F)cccc2s1 [Example 1595] | < 500
29 | O=C(c1oc(NC2CC2)nc1C(F)(F)F)N1CCc2[nH]cnc2[C@@H]1c1nc2c(F)cccc2s1 [Example 1596, (R)-(2-(cyclopropylamino)-4-(trifluoromethyl)oxazol-5-yl)(4-(4-fluorobenzo[d]thiazol-2-yl)-6,7-dihydro-1H-imidazo[4,5-c]pyridin-5(4H)-yl)methanone] | < 500
30 | O=C(c1oc(N2CCOCC2)nc1C(F)(F)F)N1CCc2[nH]cnc2[C@H]1c1nc2c(F)cccc2s1 [Example 1597, (S)-(4-(4-fluorobenzo[d]thiazol-2-yl)-6,7-dihydro-1H-imidazo[4,5-c]pyridin-5(4H)-yl)(2-morpholino-4-(trifluoromethyl)oxazol-5-yl)methanone] | < 500
31 | O=C(c1oc(N2CCOCC2)nc1C(F)(F)F)N1CCc2[nH]cnc2[C@@H]1c1nc2c(F)cccc2s1 [Example 1598, (R)-(4-(4-fluorobenzo[d]thiazol-2-yl)-6,7-dihydro-1H-imidazo[4,5-c]pyridin-5(4H)-yl)(2-morpholino-4-(trifluoromethyl)oxazol-5-yl)methanone] | < 500
32 | CN(C)CCc1ccc2c(C(=O)N3CCc4[nH]cnc4[C@H]3c3nc4c(F)cccc4s3)cnn2c1 [Example 1599, (S)-(6-(2-(dimethylamino)ethyl)pyrazolo[1,5-a]pyridin-3-yl)(4-(4-fluorobenzo[d]thiazol-2-yl)-6,7-dihydro-1H-imidazo[4,5-c]pyridin-5(4H)-yl)methanone] | 500 to 1000
33 | CN(C)CCc1ccc2c(C(=O)N3CCc4[nH]cnc4[C@@H]3c3nc4c(F)cccc4s3)cnn2c1 [Example 1600, (R)-(6-(2-(dimethylamino)ethyl)pyrazolo[1,5-a]pyridin-3-yl)(4-(4-fluorobenzo[d]thiazol-2-yl)-6,7-dihydro-1H-imidazo[4,5-c]pyridin-5(4H)-yl)methanone] | 1000 to 5000
